Experimental data as given in ChEMBL document CHEMBL2016462, “Inhibitors of Ketohexokinase: Discovery of Pyrimidinopyrimidines with Specific Substitution that Complements the ATP-Binding Site” (ACS Med Chem Lett, 2011).
≈ marks a conversion by molar mass, not a printed value.

Tests used:
Ketohexokinase [1] = target: T1, Ketohexokinase (Homo sapiens, UniProt P50053); assay: Inhibition of human ketohexokinase isoform C expressed in Escherichia coli BL21 (DE3) cells using D-fructose as substrate after 12 to 15 mins by fluorescence polarization assay
T1 sequence (P50053 whole entry): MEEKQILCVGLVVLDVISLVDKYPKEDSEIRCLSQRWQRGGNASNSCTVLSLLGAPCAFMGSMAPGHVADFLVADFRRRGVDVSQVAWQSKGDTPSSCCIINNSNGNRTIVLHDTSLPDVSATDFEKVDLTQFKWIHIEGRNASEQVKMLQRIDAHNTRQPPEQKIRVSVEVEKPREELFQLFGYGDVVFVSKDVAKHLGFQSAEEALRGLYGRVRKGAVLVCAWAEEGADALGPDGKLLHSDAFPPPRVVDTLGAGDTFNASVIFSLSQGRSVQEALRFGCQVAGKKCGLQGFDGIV

Ketohexokinase [2] = target: T1, Ketohexokinase; assay: Inhibition of ketokinase isoform C in human HepG2 cells assessed as levels of fructose-1-phosphate preincubated for 30 mins followed by substrate addition measured after 3 hrs by LC-MS analysis; assay type: cell-based
[3] = target: Tyrosine-protein kinase JAK2 (Homo sapiens, UniProt O60674); assay: Inhibition of JAK2
[4] = Half life in Sprague-Dawley rat at 2 mg/kg, iv; assay type: ADME, organism-based; design: dose 2 mg/kg, route intravenous; settings: in vivo
[5] = Permeability from apical to basolateral side in human Caco2 cells; assay type: ADME, cell-based; settings: Caco-2, read-out: permeability
[6] = Permeability from basolateral to apical side in human Caco2 cells; assay type: ADME, cell-based; settings: Caco-2, read-out: permeability
[7] = target: Death-associated protein kinase 3 (Homo sapiens, UniProt O43293); assay: Inhibition of DAPK3
[8] = Half life in Sprague-Dawley rat at 10 mg/kg, po; assay type: ADME, organism-based; design: dose 10 mg/kg, route oral; settings: in vivo
[9] = target: Serine/threonine-protein kinase 26 (Homo sapiens, UniProt Q9P289); assay: Inhibition of MST4
Aurora kinase A = Aurora kinase A (Homo sapiens, UniProt O14965); assay: Inhibition of Aurora A
[10] = target: Protein kinase C theta type (Homo sapiens, UniProt Q04759); assay: Inhibition of PKCtheta
[11] = target: Serine/threonine-protein kinase Chk2 (Homo sapiens, UniProt O96017); assay: Inhibition of CHK2
[12] = target: High affinity nerve growth factor receptor (Homo sapiens, UniProt P04629); assay: Inhibition of NTRK1
Cytochrome P450 2C19 = Cytochrome P450 2C19 (Homo sapiens, UniProt P33261); assay: Inhibition of CYP2C19 in human liver microsomes; assay type: ADME, Microsome
[13] = target: Serine/threonine-protein kinase Nek2 (Homo sapiens, UniProt P51955); assay: Inhibition of NEK2
[14] = target: Calcium/calmodulin-dependent protein kinase type II subunit alpha (Homo sapiens, UniProt Q9UQM7); assay: Inhibition of CAMK2A
[15] = Clearance in Sprague-Dawley rat at 2 mg/kg, iv; assay type: ADME, organism-based; design: dose 2 mg/kg, route intravenous; settings: in vivo
[16] = target: Serine/threonine-protein kinase Chk1 (Homo sapiens, UniProt O14757); assay: Inhibition of CHK1
[17] = Cmax in Sprague-Dawley rat at 10 mg/kg, po; assay type: ADME, organism-based; design: dose 10 mg/kg, route oral; settings: in vivo
Cytochrome P450 2C9 = Cytochrome P450 2C9 (Homo sapiens, UniProt P11712); assay: Inhibition of CYP2C9 in human liver microsomes; assay type: ADME, Microsome
Cytochrome P450 2D6 = Cytochrome P450 2D6 (Homo sapiens, UniProt P10635); assay: Inhibition of CYP2D6 in human liver microsomes; assay type: ADME, Microsome
[18] = target: Serine/threonine-protein kinase PLK3 (Homo sapiens, UniProt Q9H4B4); assay: Inhibition of PLK3
[19] = target: Calcium/calmodulin-dependent protein kinase type 1D (Homo sapiens, UniProt Q8IU85); assay: Inhibition of CAMK1D
[20] = Oral bioavailability in Sprague-Dawley rat at 10 mg/kg; assay type: ADME, organism-based; settings: in vivo
[21] = target: Tyrosine-protein kinase ABL1 (Homo sapiens, UniProt P00519); assay: Inhibition of ABL1
Cytochrome P450 3A4 = Cytochrome P450 3A4 (Homo sapiens, UniProt P08684); assay: Inhibition of CYP3A4 in human liver microsomes; assay type: ADME, Microsome
[22] = Metabolic stability of the compound in rat liver microsomes assessed as compound remaining after 10 mins; assay type: ADME, Microsome; settings: read-out: Stability
[23] = target: Serine/threonine-protein kinase PAK 3 (Homo sapiens, UniProt O75914); assay: Inhibition of PAK3
[24] = target: Ribosomal protein S6 kinase alpha-3 (Homo sapiens, UniProt P51812); assay: Inhibition of RPS6KA3
[25] = target: Rho-associated protein kinase 1 (Homo sapiens, UniProt Q13464); assay: Inhibition of ROCK1
[26] = target: 5'-AMP-activated protein kinase subunit gamma-1 (Homo sapiens, UniProt P54619); assay: Inhibition of AMPKG1
[27] = target: cAMP-dependent protein kinase catalytic subunit alpha (Homo sapiens, UniProt P17612); assay: Inhibition of PRKACA
[28] = Metabolic stability of the compound in human liver microsomes assessed as compound remaining after 10 mins; assay type: ADME, Microsome; settings: read-out: Stability
Ephrin type-B receptor 1 = Ephrin type-B receptor 1 (Homo sapiens, UniProt P54762); assay: Inhibition of EPHB1
[29] = target: Serine/threonine-protein kinase pim-2 (Homo sapiens, UniProt Q9P1W9); assay: Inhibition of PIM2
[30] = target: Proto-oncogene tyrosine-protein kinase Src (Homo sapiens, UniProt P12931); assay: Inhibition of SRC
Cytochrome P450 1A2 = Cytochrome P450 1A2 (Homo sapiens, UniProt P05177); assay: Inhibition of CYP1A2 in human liver microsomes; assay type: ADME, Microsome
[31] = Volume of distribution at steady state in Sprague-Dawley rat at 2 mg/kg, iv; assay type: ADME, organism-based; design: dose 2 mg/kg, route intravenous; settings: in vivo, read-out: Vdss
[32] = target: Interleukin-1 receptor-associated kinase 4 (Homo sapiens, UniProt Q9NWZ3); assay: Inhibition of IRAK4
[33] = target: 5'-AMP-activated protein kinase catalytic subunit alpha-1 (Homo sapiens, UniProt Q13131); assay: Inhibition of AMPKA1
[34] = target: 5'-AMP-activated protein kinase subunit beta-1 (Homo sapiens, UniProt Q9Y478); assay: Inhibition of AMPKB1
[35] = Initial plasma concentration in Sprague-Dawley rat at 2 mg/kg, iv; assay type: ADME, organism-based; design: dose 2 mg/kg, route intravenous
[36] = target: Glycogen synthase kinase-3 beta (Homo sapiens, UniProt P49841); assay: Inhibition of GSK3beta
[37] = Solubility of the compound in 10% aqueous Solutol; assay type: physicochemical
Activin receptor type-1B = Activin receptor type-1B (Homo sapiens, UniProt P36896); assay: Inhibition of ALK4
[38] = target: Cyclin-dependent kinase 1/cyclin B1 (Homo sapiens, UniProt P06493); assay: Inhibition of CDK1/cyclin B; assay type: protein-complex assay
[39] = target: Mitogen-activated protein kinase 13 (Homo sapiens, UniProt O15264); assay: Inhibition of p38delta
[40] = target: RAC-alpha serine/threonine-protein kinase (Homo sapiens, UniProt P31749); assay: Inhibition of AKT1

5'-AMP-activated protein kinase subunit gamma-1, sequence (P54619 whole entry): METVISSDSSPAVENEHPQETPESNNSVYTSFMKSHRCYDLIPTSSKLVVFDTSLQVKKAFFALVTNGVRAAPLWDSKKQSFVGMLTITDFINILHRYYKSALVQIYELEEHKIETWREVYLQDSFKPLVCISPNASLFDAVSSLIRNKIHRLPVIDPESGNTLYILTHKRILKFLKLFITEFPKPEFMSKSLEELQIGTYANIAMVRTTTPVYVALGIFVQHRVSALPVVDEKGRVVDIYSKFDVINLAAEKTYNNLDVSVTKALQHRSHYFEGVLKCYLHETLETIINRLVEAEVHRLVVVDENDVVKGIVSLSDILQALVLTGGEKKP
Rho-associated protein kinase 1, sequence (Q13464 whole entry): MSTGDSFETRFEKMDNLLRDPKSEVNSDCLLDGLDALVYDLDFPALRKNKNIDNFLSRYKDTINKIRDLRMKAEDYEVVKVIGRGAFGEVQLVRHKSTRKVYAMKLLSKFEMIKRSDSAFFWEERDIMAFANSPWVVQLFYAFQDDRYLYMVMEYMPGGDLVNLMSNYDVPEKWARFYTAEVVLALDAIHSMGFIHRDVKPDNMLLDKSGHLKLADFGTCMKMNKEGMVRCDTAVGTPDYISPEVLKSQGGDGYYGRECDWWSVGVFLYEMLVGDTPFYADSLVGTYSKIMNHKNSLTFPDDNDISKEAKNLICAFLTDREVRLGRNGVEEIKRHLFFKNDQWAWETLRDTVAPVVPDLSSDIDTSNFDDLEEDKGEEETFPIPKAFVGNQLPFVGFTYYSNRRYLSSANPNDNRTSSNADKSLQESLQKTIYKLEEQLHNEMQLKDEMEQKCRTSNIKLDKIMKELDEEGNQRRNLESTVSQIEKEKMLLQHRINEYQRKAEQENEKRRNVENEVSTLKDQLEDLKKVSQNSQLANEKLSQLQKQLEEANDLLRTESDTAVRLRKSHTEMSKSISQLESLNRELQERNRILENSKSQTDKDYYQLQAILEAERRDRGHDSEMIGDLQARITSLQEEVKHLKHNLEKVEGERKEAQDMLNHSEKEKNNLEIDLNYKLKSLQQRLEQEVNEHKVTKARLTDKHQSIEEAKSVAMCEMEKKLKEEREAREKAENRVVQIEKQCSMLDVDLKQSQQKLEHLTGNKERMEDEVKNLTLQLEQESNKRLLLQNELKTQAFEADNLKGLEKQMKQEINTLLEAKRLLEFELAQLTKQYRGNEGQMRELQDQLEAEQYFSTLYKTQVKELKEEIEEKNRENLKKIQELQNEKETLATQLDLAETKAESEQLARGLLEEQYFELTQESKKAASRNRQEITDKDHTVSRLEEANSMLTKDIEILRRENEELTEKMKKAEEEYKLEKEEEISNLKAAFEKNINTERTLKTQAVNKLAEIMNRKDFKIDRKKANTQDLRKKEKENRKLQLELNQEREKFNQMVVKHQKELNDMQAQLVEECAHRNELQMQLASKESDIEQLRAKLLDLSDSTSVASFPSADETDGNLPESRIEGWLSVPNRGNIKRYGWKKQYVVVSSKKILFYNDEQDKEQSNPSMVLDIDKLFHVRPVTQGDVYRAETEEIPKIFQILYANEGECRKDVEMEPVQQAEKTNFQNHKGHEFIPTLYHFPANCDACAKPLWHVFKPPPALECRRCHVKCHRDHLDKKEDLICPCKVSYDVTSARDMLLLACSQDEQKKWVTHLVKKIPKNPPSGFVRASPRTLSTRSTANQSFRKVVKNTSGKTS
Serine/threonine-protein kinase PAK 3, sequence (O75914 whole entry): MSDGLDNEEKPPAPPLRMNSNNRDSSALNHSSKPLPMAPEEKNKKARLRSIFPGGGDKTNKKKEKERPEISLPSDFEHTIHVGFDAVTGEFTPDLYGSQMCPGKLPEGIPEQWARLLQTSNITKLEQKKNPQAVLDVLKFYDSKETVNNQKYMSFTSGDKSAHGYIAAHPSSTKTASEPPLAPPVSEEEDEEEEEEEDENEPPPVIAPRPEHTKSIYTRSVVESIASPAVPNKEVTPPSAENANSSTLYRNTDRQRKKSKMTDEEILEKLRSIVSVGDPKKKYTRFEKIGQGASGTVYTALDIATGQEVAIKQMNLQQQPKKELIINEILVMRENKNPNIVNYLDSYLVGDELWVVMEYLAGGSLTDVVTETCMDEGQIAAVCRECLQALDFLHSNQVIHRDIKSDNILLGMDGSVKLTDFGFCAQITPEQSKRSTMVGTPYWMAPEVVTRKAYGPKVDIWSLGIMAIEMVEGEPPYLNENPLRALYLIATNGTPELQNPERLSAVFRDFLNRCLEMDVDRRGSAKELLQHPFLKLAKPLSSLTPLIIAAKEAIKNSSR
Serine/threonine-protein kinase Chk2, sequence (O96017 whole entry): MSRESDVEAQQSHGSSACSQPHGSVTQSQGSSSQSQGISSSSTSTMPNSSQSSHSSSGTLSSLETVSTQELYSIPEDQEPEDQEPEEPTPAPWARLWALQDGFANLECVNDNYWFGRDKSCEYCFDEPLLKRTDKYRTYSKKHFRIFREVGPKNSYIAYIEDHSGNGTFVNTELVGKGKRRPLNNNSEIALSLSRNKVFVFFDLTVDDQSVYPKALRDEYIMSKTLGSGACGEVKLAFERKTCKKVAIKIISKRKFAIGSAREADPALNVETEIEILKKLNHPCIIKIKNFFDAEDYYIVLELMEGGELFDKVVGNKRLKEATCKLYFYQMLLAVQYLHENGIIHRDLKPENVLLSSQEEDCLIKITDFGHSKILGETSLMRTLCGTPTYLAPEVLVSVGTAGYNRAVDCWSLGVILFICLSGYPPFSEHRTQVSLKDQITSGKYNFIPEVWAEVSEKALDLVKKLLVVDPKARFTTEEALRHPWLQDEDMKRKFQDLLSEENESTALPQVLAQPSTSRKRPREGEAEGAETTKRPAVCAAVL
Cytochrome P450 2C9, sequence (P11712 whole entry): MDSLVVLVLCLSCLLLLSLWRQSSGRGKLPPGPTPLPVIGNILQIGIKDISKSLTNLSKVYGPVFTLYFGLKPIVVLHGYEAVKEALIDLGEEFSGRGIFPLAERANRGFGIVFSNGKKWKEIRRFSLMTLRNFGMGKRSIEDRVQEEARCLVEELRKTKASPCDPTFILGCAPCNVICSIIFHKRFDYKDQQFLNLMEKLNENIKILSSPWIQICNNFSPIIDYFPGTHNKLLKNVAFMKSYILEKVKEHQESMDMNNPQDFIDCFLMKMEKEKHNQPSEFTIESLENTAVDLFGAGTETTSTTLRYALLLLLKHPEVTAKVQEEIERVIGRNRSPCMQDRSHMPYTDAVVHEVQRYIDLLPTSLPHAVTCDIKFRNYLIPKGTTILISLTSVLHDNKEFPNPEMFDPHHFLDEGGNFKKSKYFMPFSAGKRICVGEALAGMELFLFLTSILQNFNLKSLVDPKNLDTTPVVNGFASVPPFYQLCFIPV
Cyclin-dependent kinase 1/cyclin B1, sequence (P06493 whole entry): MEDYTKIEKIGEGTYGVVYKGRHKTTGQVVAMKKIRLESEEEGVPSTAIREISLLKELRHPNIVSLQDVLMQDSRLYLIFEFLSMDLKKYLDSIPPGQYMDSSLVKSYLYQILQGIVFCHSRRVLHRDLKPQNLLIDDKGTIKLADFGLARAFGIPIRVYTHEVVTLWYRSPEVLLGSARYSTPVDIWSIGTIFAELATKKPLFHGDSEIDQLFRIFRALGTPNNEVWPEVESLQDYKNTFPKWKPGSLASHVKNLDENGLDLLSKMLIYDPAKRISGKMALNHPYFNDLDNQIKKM
Cyclin-dependent kinase 1/cyclin B1, sequence (P14635 whole entry, further chain): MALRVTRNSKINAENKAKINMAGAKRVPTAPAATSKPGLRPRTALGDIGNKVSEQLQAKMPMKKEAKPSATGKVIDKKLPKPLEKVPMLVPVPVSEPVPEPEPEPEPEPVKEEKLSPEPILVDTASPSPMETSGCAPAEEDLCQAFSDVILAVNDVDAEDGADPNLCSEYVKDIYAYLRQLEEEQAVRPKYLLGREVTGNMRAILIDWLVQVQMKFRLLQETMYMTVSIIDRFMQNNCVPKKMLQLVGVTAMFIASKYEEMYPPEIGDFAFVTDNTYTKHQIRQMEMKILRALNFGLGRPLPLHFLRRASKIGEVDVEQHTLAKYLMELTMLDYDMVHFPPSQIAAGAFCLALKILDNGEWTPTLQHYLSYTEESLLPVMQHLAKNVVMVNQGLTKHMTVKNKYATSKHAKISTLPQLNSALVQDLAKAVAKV
Aurora kinase A, sequence (O14965 whole entry): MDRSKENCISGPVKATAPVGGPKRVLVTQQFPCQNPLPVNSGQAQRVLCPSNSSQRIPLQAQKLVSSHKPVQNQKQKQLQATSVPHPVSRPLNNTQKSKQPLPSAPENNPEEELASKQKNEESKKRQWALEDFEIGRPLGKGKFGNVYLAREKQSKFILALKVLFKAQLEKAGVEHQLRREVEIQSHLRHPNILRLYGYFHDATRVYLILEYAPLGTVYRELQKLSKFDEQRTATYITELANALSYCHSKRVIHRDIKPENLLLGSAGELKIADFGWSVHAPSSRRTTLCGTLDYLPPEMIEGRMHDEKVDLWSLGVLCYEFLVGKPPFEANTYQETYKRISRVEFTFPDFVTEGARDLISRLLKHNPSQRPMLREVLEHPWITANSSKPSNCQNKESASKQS
Activin receptor type-1B, sequence (P36896 whole entry): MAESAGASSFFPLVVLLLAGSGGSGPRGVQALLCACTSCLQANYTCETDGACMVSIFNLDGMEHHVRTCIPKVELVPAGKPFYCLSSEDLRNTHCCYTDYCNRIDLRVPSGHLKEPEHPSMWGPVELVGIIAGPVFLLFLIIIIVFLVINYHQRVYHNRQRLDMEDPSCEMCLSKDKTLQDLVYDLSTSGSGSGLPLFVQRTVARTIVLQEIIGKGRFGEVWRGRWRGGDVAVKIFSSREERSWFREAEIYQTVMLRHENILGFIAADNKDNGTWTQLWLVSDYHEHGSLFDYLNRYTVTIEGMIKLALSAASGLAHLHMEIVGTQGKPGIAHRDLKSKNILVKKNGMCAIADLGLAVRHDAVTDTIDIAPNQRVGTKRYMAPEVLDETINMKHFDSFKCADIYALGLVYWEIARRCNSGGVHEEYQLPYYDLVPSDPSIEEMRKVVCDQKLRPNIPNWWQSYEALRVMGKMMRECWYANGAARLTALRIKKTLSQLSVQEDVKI

CNc1ncnc2c(Nc3ccccc3C)nc(N3CCNCC3)nc12
IC50 (Ketohexokinase [1]): 0.4 µM

Cc1ccccc1Nc1nc(N2CCNCC2)nc2c(NCC3CC3)ncnc12
IC50 (Ketohexokinase [2]): 2.4 µM

c1ccc(Nc2nc(N3CCNCC3)nc3c(NCC4CC4)ncnc23)cc1
IC50 (Ketohexokinase [1]): 3.2 µM

Cc1cccc(Nc2nc(N3CCNCC3)nc3c(NCC4CC4)ncnc23)c1
IC50 (Ketohexokinase [1]): 2.8 µM

COc1ccccc1Nc1nc(N2CCNCC2)nc2c(NCC3CC3)ncnc12
IC50 (Ketohexokinase [1]): 0.1 µM

CCOc1ccccc1Nc1nc(N2CCNCC2)nc2c(NCC3CC3)ncnc12
IC50 (Ketohexokinase [1]): 0.2 µM

CSc1ccccc1Nc1nc(N2CCNCC2)nc2c(NCC3CC3)ncnc12
IC50 [3]: > 40 µM
half-life [4]: 2 h
Papp A→B [5]: 0.3 ×10⁻⁶ cm/s
Papp B→A [6]: 1 ×10⁻⁶ cm/s
IC50 [7]: > 40 µM
half-life [8]: 4 h
IC50 [9]: > 40 µM
IC50 (Aurora kinase A): > 40 µM
IC50 [10]: > 40 µM
IC50 [11]: > 40 µM
IC50 [12]: > 40 µM
inhibition (INH) (Cytochrome P450 2C19): Not Active
IC50 [13]: > 40 µM
IC50 [14]: > 40 µM
clearance [15]: 160 mL/min/kg
IC50 [16]: > 40 µM
Cmax [17]: 160 nM
inhibition (INH) (Cytochrome P450 2C9): Not Active
inhibition (INH) (Cytochrome P450 2D6): Not Active
IC50 [18]: > 40 µM
IC50 [19]: > 40 µM
bioavailability [20]: 34%
IC50 [21]: > 40 µM
inhibition (INH) (Cytochrome P450 3A4): Not Active
remaining at 10 min [22]: 72%
IC50 [23]: > 40 µM
IC50 [24]: > 40 µM
IC50 [25]: > 40 µM
IC50 [26]: > 40 µM
IC50 [27]: > 40 µM
remaining at 10 min [28]: 88%
IC50 (Ephrin type-B receptor 1): > 40 µM
IC50 [29]: > 40 µM
IC50 [30]: > 40 µM
inhibition (INH) (Cytochrome P450 1A2): Not Active
Vd [31]: 32 L/kg
IC50 (Ketohexokinase [2]): 0.4 µM
IC50 [32]: > 40 µM
IC50 [33]: > 40 µM
IC50 [34]: > 40 µM
C0 [35]: 600 nM
IC50 [36]: > 40 µM
solubility [37]: 1500 µg/mL (≈ 3.55 mM)
IC50 (Activin receptor type-1B): > 40 µM
IC50 [38]: > 40 µM
IC50 [39]: > 40 µM
IC50 [40]: > 40 µM

CSc1cccc(Nc2nc(N3CCNCC3)nc3c(NCC4CC4)ncnc23)c1
IC50 (Ketohexokinase [1]): 2 µM

CSc1ccc(Nc2nc(N3CCNCC3)nc3c(NCC4CC4)ncnc23)cc1
IC50 (Ketohexokinase [1]): > 9 µM

CS(=O)(=O)c1ccccc1Nc1nc(N2CCNCC2)nc2c(NCC3CC3)ncnc12
IC50 (Ketohexokinase [1]): > 9 µM

CCSc1ccccc1Nc1nc(N2CCNCC2)nc2c(NCC3CC3)ncnc12
IC50 (Ketohexokinase [1]): > 9 µM

FC(F)(F)Sc1ccccc1Nc1nc(N2CCNCC2)nc2c(NCC3CC3)ncnc12
IC50 (Ketohexokinase [1]): 3 µM

CCc1ccccc1Nc1nc(N2CCNCC2)nc2c(NCC3CC3)ncnc12
IC50 (Ketohexokinase [1]): 0.13 µM

CC(C)c1ccccc1Nc1nc(N2CCNCC2)nc2c(NCC3CC3)ncnc12
IC50 (Ketohexokinase [1]): 5 µM

c1ccc(C2CC2)c(Nc2nc(N3CCNCC3)nc3c(NCC4CC4)ncnc23)c1
IC50 (Ketohexokinase [1]): 0.38 µM

Fc1ccccc1Nc1nc(N2CCNCC2)nc2c(NCC3CC3)ncnc12
IC50 (Ketohexokinase [1]): 1.5 µM

Clc1ccccc1Nc1nc(N2CCNCC2)nc2c(NCC3CC3)ncnc12
IC50 (Ketohexokinase [1]): 0.54 µM

Brc1ccccc1Nc1nc(N2CCNCC2)nc2c(NCC3CC3)ncnc12
IC50 (Ketohexokinase [1]): 0.17 µM

c1nc(NCC2CC2)c2nc(N3CCNCC3)nc(NC3CC3)c2n1
IC50 (Ketohexokinase [1]): > 9 µM

c1nc(NCC2CC2)c2nc(N3CCNCC3)nc(NC3CCCCC3)c2n1
IC50 (Ketohexokinase [1]): > 9 µM

CCCNc1ncnc2c(Nc3ccccc3C)nc(N3CCNCC3)nc12
IC50 (Ketohexokinase [1]): 0.4 µM

CCCCCCNc1ncnc2c(Nc3ccccc3C)nc(N3CCNCC3)nc12
IC50 (Ketohexokinase [1]): 1.6 µM

Cc1ccccc1Nc1nc(N2CCNCC2)nc2c(NC3CCCCC3)ncnc12
IC50 (Ketohexokinase [1]): 2.3 µM

CCN(CC)c1ncnc2c(Nc3ccccc3C)nc(N3CCNCC3)nc12
IC50 (Ketohexokinase [1]): 1.7 µM
